The results in this text go back to US6608082B1, “Treatment of erectile dysfunction using isoquinoline compound melanocortin receptor ligands” (Lion Bioscience AG, priority 1998, dated 2003).

One experiment relates to IL-10. The experiment can be described thus: Increasing levels of IL-10 in mice (plasma ELISA). It counts as in vivo. Conditions: IP, mouse plasma, 90 or 105 minutes; for % IL-10 Induction, IP 30: 30 μg per mouse; for % IL-10 Induction, IP 300: 300 μg per mouse. The procedure:
Isoquinoline compounds were administered intraperitoneally to mice in doses of 30, 100 or 300 μg/mouse or orally in doses of 300 or 600 μg/mouse. Levels of IL-10 were measured 90 or 105 minutes after administration as indicated. Samples were collected and diluted, when appropriate, as described in Example VI. A 100 μl sample of plasma was assayed by ELISA for IL-10. Briefly, ELISA plates were coated with rat anti-mouse IL-10 monoclonal antibody (Pharmingen; San Diego Calif.). Samples or known concentrations of IL-10 were added to the coated plates and incubated for 2 hr at 37° C. Plates were washed and incubated with biotinylated rat anti-mouse IL-10 (R&D Systems; Minneapolis Minn.) for 1 hr at 37° C. Plates were washed and incubated with streptavidin-HRP 30 min at 37° C., and HRP activity was detected with hydrogen peroxide and TMB using standard immunoassay procedures.

Another experiment concerns the target T1, MCR-1 (Homo sapiens, UniProt Q01726).
T1 construct: expressed in transfected cells; host or cells: HEK 293
The experiment can be described thus: Melanocortin receptor binding assay, competition with 125I-HP 467, HEK 293 cells expressing hMCR-1. Conditions: 10 μM isoquinoline compound. In outline:
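Test compounds compete on intact HEK 293 cells carrying hMCR-1 (2×10^4 per tube) or hMCR-4 (4×10^3 per tube), suspended in PBS, 10% calf serum, 1 mM CaCl2.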

For the next experiment, the system named is TNF-α. As to the kind of experiment: Reduction of lipopolysaccharide-induced tumor necrosis factor levels in mice. It counts as in vivo, BALB/c female mice. The following applies: IP, plasma 90 or 105 minutes after LPS, mean ± SEM; for % TNF-α Inhibtion, IP 30: 30 μg per mouse; for % TNF-α Inhibtion, IP 300: 300 μg per mouse. The procedure:
BALB/c female mice weighing approximately 20 g were placed into a control group and a treated group. Five mg/kg of LPS in 0.9% saline was administered (100 μl to give 100 μg LPS per mouse) by intraperitoneal (IP) injection to all mice. Mice in the treatment group received either 30, 100, 300 or 600 μg of various isoquinoline compounds per mouse in a volume of 100 μl of PBS. Control mice received 100 μl of saline alone. One minute after initial injections all mice received the LPS injection. As a positive control, 100 μg of HP 228 was injected per mouse.
Blood samples were collected from the orbital sinus of treated and control mice 90 minutes or 105 minutes after LPS administration. The plasma was separated by centrifugation at 3000×g for 5 min and stored at −20° C. Samples were thawed and diluted, if TNF-α concentration was greater than 3200 pg/ml, with PBS containing 1% bovine serum albumin, 10% donor horse serum, 1% normal mouse serum, 0.05% TWEEN-20 and 0.05% thimerosal. A 100 μl sample of plasma was assayed by ELISA for TNF-α. Briefly, ELISA plates were coated with hamster anti-mouse TNF-α antibody (Genzyme; Cambridge Mass.). Samples or known concentrations of TNF-α were added to the coated plates and incubated for 2 hr at 37° C. Plates were washed and subsequently incubated with biotinylated rabbit anti-mouse TNG-α for 1 hr at 37° C. Plates were washed and incubated with streptavidin-HRP for 1 hr at 37° C., and HRP activity was detected with hydrogen peroxide and o-phenylenediamine (OPD) using standard immunoassay procedures.
The mean (±SEM) TNF-α level in five mice from each group was determined and the percent reduction in TNF-α levels was calculated.

A further experiment has as its target T2, MCR-5 (Homo sapiens, UniProt P33032).
T2 construct: expressed in transfected cells; host or cells: HEK 293
As to the kind of experiment: Melanocortin receptor binding assay, competition with 125I-HP 467, HEK 293 cells expressing hMCR-5. Conditions: binding to MCR-5, HEK 293 cells; read-out: MC-5 IC50. From the text:
(§1) All cell culture media and reagents were obtained from GibcoBRL (Gaithersburg Md.), except for COSMIC CALF SERUM (HyClone; Logan Utah). HEK-293 cell lines were transfected with the human MC receptors hMCR-1, hMCR-3, and hMCR-4 (Gantz et al., Biochem. Biophys. Res. Comm. 200:1214-1220 (1994); Gantz et al., J. Biol. Chem. 268:8246-8250 (1993); Gantz et al. J. Biol. Chem. 268:15174-15179 (1993); Haskell-Leuvano et al., Biochem. Biophys. Res. Comm. 204:1137-1142 (1994); each of which is incorporated herein by reference). Vectors for construction of an hMCR-5 expressing cell line were obtained, and a line of HEK 293 cells expressing hMCR-5 was constructed (Gantz, supra, 1994). hMCR-5 has been described previously (Franberg et al., Biochem. Biophys. Res. Commun. 236:489-492 (1997); Chowdhary et al., Cytogenet. Cell Genet. 68:1-2 (1995); Chowdhary et al., Cytogenet. Cell Genet. 68:79-81 (1995), each of which is incorporated herein by reference). HEK 293 cells were maintained in DMEM, 25 mM HEPES, 2 mM glutamine, non-essential amino acids, vitamins, sodium pyruvate, 10% COSMIC CALF SERUM, 100 units/ml penicillin, 100 μg/ml streptomycin and 0.2 mg/ml G418 to maintain selection.
(§2) Before assaying, cells were washed once with phosphate buffered saline (“PBS”; without Ca^2+ and Mg^2+), and stripped from the flasks using 0.25% trypsin and 0.5 mM EDTA. Cells were suspended in PBS, 10% COSMIC CALF SERUM and 1 mM CaCl2. Cell suspensions were prepared at a density of 2×10^4 cells/ml for HEK 293 cells expressing hMCR-3, hMCR-4 or hMCR-5, and 1×10^5 cells/ml for HEK 293 cells expressing hMCR-1. Suspensions were placed in a water bath and allowed to warm to 37° C. for 1 hr.
(§3) Binding assays were performed in a total volume of 250 μl for HEK 293 cells. Control and test compounds were dissolved in distilled water. ^125I-HP 467 (50,000 dpm) (2000 Ci/mmol) (custom labeled by Amersham; Arlington Heights Ill.) was prepared in 50 mM Tris, pH 7.4, 2 mg/ml BSA, 10 mM CaCl2, 5 mM MgCl2, 2 mM EDTA and added to each tube. To each tube was added 4×10^3 HEK 293 cells expressing hMCR-3, hMCR-4 or hMCR-5, or 2×10^4 cells expressing hMCR-1. Assays were incubated for 2.5 hr at 37° C.
(§4) GF/B filter plates were prepared by soaking for at least one hour in 5 mg/ml BSA and 10 mM CaCl2. Assays were filtered using a Brandel 96-well cell harvester (Brandel Inc.; Gaithersburg, Md.). The filters were washed four times with cold 50 mM Tris, pH 7.4, the filter plates were dehydrated for 2 hr and 35 μl of MICROSCINT was added to each well. Filter plates were counted using a Packard Topcount (Packard Instrument Co.) and data analyzed using GraphPad PRISM v2.0 (GraphPad Software Inc.; San Diego Calif.) and Microsoft EXCEL v5.0a (Microsoft Corp.; Redmond Wash.).
(§5) To assay isoquinoline compounds, binding assays were performed in duplicate in a 96 well format. HP 467 was prepared in 50 mM Tris, pH 7.4, and ^125I-HP 467 was diluted to give 100,000 dpm per 50 μl. An isoquinoline compound, synthesized as described in Example I, was added to the well in 25 μl aliquots. A 25 μl aliquot of ^125I-HP 467 was added to each well. A 0.2 ml aliquot of suspended cells was added to each well to give the cell numbers indicate above, and the cells were incubated at 37° C. for 2.5 hr. Cells were harvested on GF/B filter plates as described above and counted.
(§6) Some of the isoquinoline compounds were further tested for binding to MCR-3 and MCR-5.

The target in the next experiment is T3, MCR-3 (Homo sapiens, UniProt P41968).
T3 construct: expressed in transfected cells; host or cells: HEK 293
The experiment can be described thus: Melanocortin receptor binding assay, competition with 125I-HP 467, HEK 293 cells expressing hMCR-3. The following applies: binding to MCR-3, HEK 293 cells; read-out: MC-3 IC50.
Text: as §1, §2, §3, §4, §5, §6

Experiment [1] has as its system arachidonic acid induced dermal inflammation. As to the kind of experiment: Arachidonic acid induced dermal inflammation (ear thickness). In kind it is in vivo, Female BALB/c mice. The procedure: Female BALB/c mice (17-22 g) were used and administered the test isoquinoline compounds or positive control compounds 30 to 60 min prior to topical application of arachidonic acid. Indomethacin and HP 228 were used as positive controls. Compounds were administered orally (p.o.) or intraperitoneally (i.p.). Initial ear thickness (left and right) was measured using spring loaded micro-calipers. Arachidonic acid was applied to mice anesthetized with a cocktail of ketamine/xylazine (7.0 mg/ml and 0.6 mg/ml, respectively) administered i.p. (300 μl/mouse). Utilizing a micro-pipette, 20 μl of arachidonic acid solution (100 mg/ml ethanol or acetone) was applied to the right ear (10 μl to inner and 10 μl to outer surfaces of […] for a total of 2 mg arachidonic acid per right ear), and 20 μl of vehicle (ethanol or acetone) was applied to the left ear. Mice were returned to their cages to recover. Mice were again anesthetized 50 min after arachidonic acid application and their ears measured.
Dermal inflammation was determined by subtracting the difference of the vehicle treated left ear (L60−L0) from the difference of the arachidonic acid treated right ear (R60−R0). Ear thickness measurements were averaged for each group, and the responses in the vehicle treated control group (Cr; saline or PBS) were subtracted from the response noted in the isoquinoline compound treated group (Tr) to give the relative inflammatory response for each treatment group compared to the control group. The percent inhibition is defined by the equation: % inhibition=(Cr−Tr)/(Cr)×100.

A short description of experiment [2]: Body weight and food consumption after i.p. administration. It counts as in vivo, Sprague-Dawley rats. Conditions: rats, 5 mg/kg i.p., 18 hours after injection; FIG. 6. The source says: Adult male Sprague-Dawley rats (175-225 g) were used to assess the effect of isoquinoline compounds on food uptake and body weight. Baseline body weight and food consumption measurements were taken for 3 days prior to start of the study (Day 0). On Day −1, the food was taken away from the animals at 5:00 PM. The next morning (Day 0), body weight measurements were taken, and the animals were divided into treatment groups with 6 animals in each group. The treatment groups were saline control, HP 228 positive control and test isoquinoline compounds. Saline was administered i.p. at 1 ml/kg. HP 228 and test isoquinoline compounds were administered i.p. at 5 mg/kg. The injections were initiated at 2:00 PM on Day 0.
Body weight and food consumption measurements were taken at 9 hr (Day 0; 11:00 PM) and at 18 hr (Day 1, 8:00 AM) after injection. At the end of the study, all evaluated parameters (9 and 18 hour body weight and food consumption) were analyzed by standard statistical methods. Significance (P<0.05) was determined by one-way ANOVA, ANOVA for repeated measures, or Student's t-test.
The level of reduction was similar to that seen with HP 228.

T1 sequence (Q01726 whole entry): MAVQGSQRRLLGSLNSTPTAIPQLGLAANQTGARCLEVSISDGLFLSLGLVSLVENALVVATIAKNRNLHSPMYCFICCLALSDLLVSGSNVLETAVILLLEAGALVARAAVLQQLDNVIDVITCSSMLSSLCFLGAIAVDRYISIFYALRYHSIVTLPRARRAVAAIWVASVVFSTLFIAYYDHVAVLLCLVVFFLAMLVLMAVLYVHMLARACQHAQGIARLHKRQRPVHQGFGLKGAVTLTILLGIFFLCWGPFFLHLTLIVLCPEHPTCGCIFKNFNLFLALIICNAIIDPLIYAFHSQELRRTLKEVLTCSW
T2 sequence (P33032 whole entry): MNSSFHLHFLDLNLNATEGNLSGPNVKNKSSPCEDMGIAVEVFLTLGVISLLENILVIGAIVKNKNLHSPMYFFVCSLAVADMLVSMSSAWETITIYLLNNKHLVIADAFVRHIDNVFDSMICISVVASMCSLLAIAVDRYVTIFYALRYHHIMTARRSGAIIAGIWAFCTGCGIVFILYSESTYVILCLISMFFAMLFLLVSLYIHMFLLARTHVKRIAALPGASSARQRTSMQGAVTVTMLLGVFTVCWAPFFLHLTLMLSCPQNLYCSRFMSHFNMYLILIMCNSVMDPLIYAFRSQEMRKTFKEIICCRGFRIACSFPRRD
T3 sequence (P41968 whole entry): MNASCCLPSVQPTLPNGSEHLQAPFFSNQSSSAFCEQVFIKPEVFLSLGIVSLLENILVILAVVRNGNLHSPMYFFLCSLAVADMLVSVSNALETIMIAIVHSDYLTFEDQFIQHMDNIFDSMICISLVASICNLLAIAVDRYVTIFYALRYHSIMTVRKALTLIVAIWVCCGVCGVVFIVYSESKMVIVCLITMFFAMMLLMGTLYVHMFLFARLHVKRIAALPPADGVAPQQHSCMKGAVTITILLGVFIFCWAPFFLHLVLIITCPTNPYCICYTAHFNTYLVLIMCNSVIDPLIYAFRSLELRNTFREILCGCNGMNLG

Take `CNC(CN)CCCCN1Cc2ccccc2C(CNC2CCCCC2)C1c1ccc(OC)c(S(=O)(=O)O)c1` (stereo not drawn) [TRG 2405-268]: in the experiment with IL-10, the “% IL-10 Induction, IP 30” value is −3 ± 16% and the “% IL-10 Induction, IP 300” value was 6 ± 17%. For the same compound, the “% Disp. of 125I-HP 467 (first of duplicate)” value on MCR-1 (HEK 293 cells expressing MCR-1, duplicate 1) stood at 0%. Further, the “% Disp. of 125I-HP 467 (second of duplicate)” value at MCR-1 (HEK 293 cells expressing MCR-1, duplicate 2) was found to be 3.6%. In the experiment with TNF-α, the “% TNF-α Inhibtion, IP 30” value is reported as −58 ± 18% and the “% TNF-α Inhibtion, IP 300” value was found to be 9 ± 23%.

Regarding `CCNc1ccc(C2C(CNC3CCCC3)c3ccccc3CN2CCCCC(CN)NC)cc1` (stereo not drawn) [TRG 2407-67], the IC50 (commonly the concentration that gives 50% inhibition) at MCR-5 is 4.16 µM. In the experiment on IL-10, the “% IL-10 Induction, IP 30” value was −3 ± 15% and the “% IL-10 Induction, IP 300” value came out at 29 ± 8%. In addition, in the experiment on TNF-α, the “% TNF-α Inhibtion, IP 30” value is given as 8 ± 14% and the “% TNF-α Inhibtion, IP 300” value was 73 ± 3 %. Also, the IC50 at MCR-3 worked out at 20.9 µM.

`COc1ccc2c(c1)c(CC(=O)O)c(C)n2C(=O)c1ccc(Cl)cc1` [indomethacin, reference compound]: the “inhibition of arachidonic acid induced dermal inflammation” value (“inhibition” below) in experiment [1] (administered orally, TRG 2405-241 600 μg/mouse, indomethacin 1 mg/mouse, FIG. 2) is reported as “inhibition of arachidonic acid induced dermal inflammation”.

With “Ac-Nle-Gln-His-(D)Phe-Arg-(D)Trp-Gly-NH2 [HP 228, reference compound]”, the “inhibition” value in experiment [1] (100 μg/mouse administered intraperitoneally, FIG. 4) was “inhibition of arachidonic acid induced dermal inflammation”. The “inhibition” value in experiment [1] (administered intraperitoneally, TRG 2405-241 300 μg/mouse, HP 228 100 μg/mouse, FIG. 3) is recorded as “inhibition of arachidonic acid induced dermal inflammation”. In experiment [1] (intraperitoneally, HP 228 100 μg/mouse, TRG 2409-2 or TRG 2409-14 100 or 300 μg/mouse, FIG. 5), the “reduction in the level of arachidonic acid-induced dermal inflammation” value is on record as “reduction”. Moreover, in experiment [2], the food consumption result is on record as “reduction” and the weight gain result is listed as “reduction”.
